Test results taken from patent US4992421A, “Luteinizing hormone releasing hormone antagonist” (priority 1988, dated 1991).

Key:
[1] = in vivo; cited from earlier work
[2] = molecular target: T1, LHRH receptors (rat pituitary membranes) (Rattus norvegicus, UniProt P30969); assay: LHRH radioligand receptor binding assay; details: radioiodinated [D-Leu6-des Gly10]-LHRH ethyl amide 50 pM, 2 hours at 4° C., read-out: LHRH RECEPTOR BINDING AFFINITY KI
T1 construct: Pituitary membranes containing LHRH receptors are prepared in batches from quick-frozen rat pituitaries; tissue Hilltop Labs; host or cells: rat pituitary membranes
T1 sequence (P30969 1-327): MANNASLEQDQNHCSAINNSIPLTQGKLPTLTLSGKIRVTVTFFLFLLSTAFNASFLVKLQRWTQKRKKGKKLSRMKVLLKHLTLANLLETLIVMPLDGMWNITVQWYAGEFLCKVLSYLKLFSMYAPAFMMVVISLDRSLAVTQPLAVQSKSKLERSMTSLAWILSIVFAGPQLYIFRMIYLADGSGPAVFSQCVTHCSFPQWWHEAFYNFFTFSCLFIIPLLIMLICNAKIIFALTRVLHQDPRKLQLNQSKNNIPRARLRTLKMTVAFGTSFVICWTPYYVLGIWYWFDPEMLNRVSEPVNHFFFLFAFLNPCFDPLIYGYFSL
Experimental: Receptor Binding. A radioligand receptor binding assay is performed in a similar way to that described in the literature (J. Marion et al., Mol. Pharmacol. 19 399 (1981)). [D-Leu^6 -des Gly^10 ]-LHRH ethyl amide was radioiodinated by the chloramine-T method and used as the radioligand. Pituitary membranes containing LHRH receptors are prepared in batches from quick-frozen rat pituitaries obtained from Hilltop Labs. The radioligand (50 pM), receptors, and compounds to be tested are coincubated for 2 hours at 4° C. Bound ligand is separated from free ligand via centrifugation and aspiration. Compounds are tested at six half-log concentration increments, and the equilibrium dissociation constant (KI) is calculated from the concentration which displaces 50% of specifically bound radioligand.

[3] = test system: serum testosterone; details: given orally to patients, 200 to 1200 mg daily; cited from earlier work

SMILES | bioavailable from the duodenum [1] | Ki [2] [nM] | suppression of serum testosterone [3]
CCNC(=O)[C@@H]1CCCN1C(=O)[C@H](CCCNC(=N)N)NC(=O)[C@H](CC(C)C)NC(=O)[C@@H](CC(C)C)NC(=O)[C@H](Cc1ccc(O)cc1)NC(=O)[C@H](CO)NC(=O)[C@H](Cc1c[nH]c2ccccc12)NC(=O)[C@H](Cc1c[nH]cn1)NC(=O)[C@@H]1CCC(=O)N1 [leuprolide] | less than 1% | – | –
CC(=O)N1CCN(c2ccc(OCC3COC(Cn4ccnc4)(c4ccc(Cl)cc4Cl)O3)cc2)CC1 (stereo not drawn) [Ketoconazole] | – | 2000 | dose dependent suppression of serum testosterone
